Measurements: US20150208658A1, “METHODS OF SOIL PEST CONTROL” (Syngenta Participations AG, priority 2012, published 2015)
Where two headings read alike, the source gives them in different places.

Tests used:
[1] = tested on: Diabrotica balteata; assay: Diabrotica balteata (Banded Cucumber Beetle): treated corn seeds sown in soil pots, seedlings infested with 3rd stage larvae; assay type: in vivo; conditions: seed treatment, 6 days incubation
Protocol: Diabrotica balteata (Banded Cucumber Beetle)
Treated corn seeds are sown in a 350 ml pot filled with soil. Two weeks after sowing phytotoxicity (lack of shoot—missing emergence) in comparison to the control is estimated and expressed in percentage. Furthermore, corn seedlings are infested with 3rd stage larvae of Diabrotica balteata. After an incubation period of 6 days survived larvae are counted and larval growth is assessed. Larval growth indicates the number of larvae with size differences between the larvae in the control and treatments, expressed in percentage.

[2] = tested on: Diabrotica balteata; assay: Diabrotica balteata (Corn Rootworm): 24-well microtiter plate with artificial diet, L2 larvae, larval mortality; assay type: in vivo; conditions: for pest or weed control at 50 µg/mL / pest or weed control at 200 ppm: Diabrotica balteata, 120 h; for pest or weed control at 50 µg/mL: read-out: control of Diabrotica balteata at 50 ppm or less; for pest or weed control at 200 ppm: read-out: control of Diabrotica balteata; for Control/%: comparative example
Protocol: Diabrotica balteata (Corn Rootworm)
[…] After drying, the MTP's are infested with L2 larvae (6-10 per well). After an incubation period of 5 days, samples are checked for larval mortality.
Compounds are tested according to the above method.

[3] = 50 ppm or less, L2 larvae, 5 days
[4] = application rate 200 ppm (concentration in well 18 ppm), L2 larvae, 5 days

Q: For `N#Cc1cc(C2=NCC(c3cc(Cl)c(Cl)c(Cl)c3)(C(F)(F)F)C2)ccc1-n1cncn1` (stereo not shown) [Compound C2, 2-(1,2,4-triazol-1-yl)-5-[3-(3,4,5-trichlorophenyl)-3-(trifluoromethyl)-2,4-dihydropyrrol-5-yl]benzonitrile], which “% larval mortality” value ([1]; application rate 0.3 mg/seed) is on record?
A: 44%

Q: What about the pest or weed control at 50 µg/mL [2, 3] of the same compound?
A: > 80%

Q: And the pest or weed control at 200 ppm [2, 4]?
A: ≥ 80%

Q: `C[C@H](NC(=O)C1CC1)c1ccc(N2CCC(c3cc(Cl)cc(Cl)c3)(C(F)(F)F)C2)cc1` (stereo partly drawn) [Compound B1, N-[(1S)-1-[4-[3-(3,5-dichlorophenyl)-3-(trifluoromethyl)pyrrolidin-1-yl]phenyl]ethyl]cyclopropanecarboxamide] was tested. Which pest or weed control at 50 µg/mL [2, 3] did it give?
A: > 80%

Q: What about the pest or weed control at 200 ppm [2, 4] of the same compound?
A: ≥ 80%

Q: How did the pest or weed control at 50 µg/mL [2, 3] turn out when `CCC(=O)NC1CCc2cc(N3CCC(c4cc(C(F)(F)F)cc(C(F)(F)F)c4)(C(F)(F)F)C3)ccc21` (stereo not shown) [Compound E6, N-[5-[3-[3,5-bis(trifluoromethyl)phenyl]-3-(trifluoromethyl)pyrrolidin-1-yl]indan-1-yl]propanamide] was run?
A: > 80%

Q: What about the pest or weed control at 200 ppm [2, 4] of the same compound?
A: ≥ 80%

Q: `N#Cc1cc(C2=NOC(c3cc(Cl)c(F)c(Cl)c3)(C(F)(F)F)C2)ccc1-n1nc(C(F)(F)F)cc1C(F)(F)F` (stereo not shown) [Compound D10] was tested. Which “control of Diabrotica balteata” value [2, 4] did it give?
A: No activity

Q: How did the pest or weed control at 50 µg/mL [2, 3] turn out when `CC(=O)NCc1ccc(N2CCC(c3cc(Cl)cc(Cl)c3)(C(F)(F)F)C2)cc1C` (stereo not shown) [Compound A4, N-{4-[3-(3,5-dichlorophenyl)-3-(trifluoromethyl)pyrrolidin1-yl]-2-methyl-benzyl)acetamide] was run?
A: > 80%

Q: What about the pest or weed control at 200 ppm [2, 4] of the same compound?
A: ≥ 80%

Q: `CCC(=O)NC1CCc2cc(C3=NOC(c4cc(Cl)cc(Cl)c4)(C(F)(F)F)C3)ccc21` (stereo not shown) [Compound E1] was tested. Which “% larval mortality” value ([1]; application rate 0.3 mg/seed) did it give?
A: 83%

Q: With `O=C(CC(F)(F)F)NC1CCc2cc(C3=NOC(c4cc(Cl)cc(Cl)c4)(C(F)(F)F)C3)ccc21` (stereo not shown) [drawing 74] as the compound, how does the Control/% ([2]; application rate 3 ppm) read?
A: 100%

Q: What about the Control/% ([2]; application rate 12.5 ppm) of the same compound?
A: 100%

Q: For `N#Cc1cc(C2=NOC(c3cc(Cl)c(F)c(Cl)c3)(C(F)(F)F)C2)ccc1-n1ccc(C(F)(F)F)n1` (stereo not shown) [Compound D11], which “control of Diabrotica balteata” value [2, 4] is on record?
A: No activity

Q: Which “% larval mortality” value ([1]; application rate 0.3 mg/seed) does the source give for `O=C(CC(F)(F)F)NC1CCc2cc(C3=NOC(c4cc(Cl)cc(Cl)c4)(C(F)(F)F)C3)ccc21` (stereo not shown) [Compound E7] here?
A: 60%

Q: What does the source list for `FC(F)(F)C1(c2cc(Cl)cc(Cl)c2)CC(c2ccc(-n3cncn3)cc2)=NO1` (stereo not shown) [reference compound]?
A: Control/% ([2]; application rate 3 ppm): 0%; Control/% ([2]; application rate 12.5 ppm): 85%

Q: How did the “% larval mortality” value ([1]; application rate 1 mg/seed) turn out when `N#Cc1cnn(-c2ccc(C3=NOC(c4cc(Cl)c(F)c(Cl)c4)(C(F)(F)F)C3)cc2C#N)c1` (stereo not shown) [Compound D1] was run?
A: 100%

Q: What does the source list for `N#Cc1cc(C2=NOC(c3cc(Cl)cc(Cl)c3)(C(F)(F)F)C2)ccc1-n1cncn1` (stereo not shown) [drawing 76]?
A: Control/% ([2]; application rate 3 ppm): 65%; Control/% ([2]; application rate 12.5 ppm): 100%

Q: With `O=C(NCC(F)(F)F)N1CCc2cc(C3=NOC(c4cc(Cl)cc(Cl)c4)(C(F)(F)F)C3)ccc21` (stereo not shown) [reference compound] as the compound, how does the Control/% ([2]; application rate 12.5 ppm) read?
A: 65%

Q: Which results are given for `CC(C)C(=O)NCc1ccc(C2=NOC(c3cc(Cl)cc(Cl)c3)(C(F)(F)F)C2)cc1Cl` (stereo not shown) [Compound A2]?
A: pest or weed control at 200 ppm [2]: ≥ 80%; pest or weed control at 50 µg/mL [2]: > 80%

Q: `C[C@H](NC(=O)C1CC1)c1ccc(N2CCC(c3cc(C(F)(F)F)cc(C(F)(F)F)c3)(C(F)(F)F)C2)cc1` (stereo partly drawn) [Compound B4, N-[(1S)-1-[4-[3-[3,5-bis(trifluoromethyl)phenyl]-3-(trifluoromethyl)pyrrolidin-1-yl]phenyl]ethyl]cyclopropanecarboxamide] was tested. Which “% larval mortality” value ([1]; application rate 0.3 mg/seed) did it give?
A: 78%

Q: What about the pest or weed control at 50 µg/mL [2, 3] of the same compound?
A: > 80%

Q: What about the pest or weed control at 200 ppm [2, 4] of the same compound?
A: ≥ 80%

Q: With `N#Cc1cc(C2=NOC(c3cc(Cl)c(F)c(Cl)c3)(C(F)(F)F)C2)ccc1-n1cc(F)cn1` (stereo not shown) [Compound D2] as the compound, how does the “% larval mortality” value ([1]; application rate 1 mg/seed) read?
A: 100%

Q: What does the source list for `O=C(NC1CCc2cc(C3=NCC(c4cc(Cl)cc(Cl)c4)(C(F)(F)F)C3)ccc21)C(F)(F)F` (stereo not shown) [Compound E5, N-[5-[3-(3,5-dichlorophenyl)-3-(trifluoromethyl)-2,4-dihydropyrrol-5-yl]indan-1-yl]-2,2,2-trifluoro-acetamide]?
A: pest or weed control at 50 µg/mL [2, 3]: > 80%; pest or weed control at 200 ppm [2, 4]: ≥ 80%

Q: `O=C(NC1CCc2cc(C3=NCC(c4cc(Cl)cc(Cl)c4)(C(F)(F)F)C3)ccc21)C1CC1` (stereo not shown) [Compound E4, N-[5-[3-(3,5-dichlorophenyl)-3-(trifluoromethyl)-2,4-dihydropyrrol-5-yl]indan-1-yl]cyclopropanecarboxamide] was tested. Which pest or weed control at 50 µg/mL [2, 3] did it give?
A: > 80%

Q: And the pest or weed control at 200 ppm [2, 4]?
A: ≥ 80%

Q: `CC(=O)N[C@@H](C)c1ccc(C2=NOC(c3cc(Cl)cc(Cl)c3)(C(F)(F)F)C2)cc1` (stereo partly drawn) [Compound B2, N-[(1S)-1-[4-[5-(3,5-dichlorophenyl)-5-(trifluoromethyl)-4H-isoxazol-3-yl]phenyl]ethyl]acetamide] was tested. Which pest or weed control at 200 ppm [2] did it give?
A: ≥ 80%

Q: What about the pest or weed control at 50 µg/mL [2] of the same compound?
A: > 80%

Q: Which pest or weed control at 50 µg/mL [2, 3] does the source give for `CCC(=O)NC1CCc2cc(C3=NCC(c4cc(Cl)cc(Cl)c4)(C(F)(F)F)C3)ccc21` (stereo not shown) [Compound E3, N-[5-[3-(3,5-dichlorophenyl)-3-(trifluoromethyl)-2,4-dihydropyrrol-5-yl]indan-1-yl]propanamide] here?
A: > 80%

Q: What about the pest or weed control at 200 ppm [2, 4] of the same compound?
A: ≥ 80%

Q: `N#Cc1cc(C2=NOC(c3cc(Cl)cc(Cl)c3)(C(F)(F)F)C2)ccc1-n1cncn1` (stereo not shown) [Compound C4] was tested. Which “% larval mortality” value ([1]; application rate 1 mg/seed) did it give?
A: 100%

Q: How did the pest or weed control at 50 µg/mL [2, 3] turn out when `CC(=O)NC1CCc2cc(C3=NCC(c4cc(Cl)cc(Cl)c4)(C(F)(F)F)C3)ccc21` (stereo not shown) [Compound E2, N-[5-[3-(3,5-dichlorophenyl)-3-(trifluoromethyl)-2,4-dihydropyrrol-5-yl]indan-1-yl]acetamide] was run?
A: > 80%

Q: What about the pest or weed control at 200 ppm [2, 4] of the same compound?
A: ≥ 80%

Q: What does the source list for `CC(=O)NCc1ccc(C2=NCC(c3cc(Cl)cc(Cl)c3)(C(F)(F)F)C2)cc1Br` (stereo not shown) [Compound A5, N-{2-bromo-4-[4-(3,5-dichlorophenyl)-4-trifluoromethyl-4,5-dihydro-3H-pyrrol-2yl]-benzyl}acetamide]?
A: pest or weed control at 50 µg/mL [2, 3]: > 80%; pest or weed control at 200 ppm [2, 4]: ≥ 80%

Q: With `C[C@H](NC(=O)C1CC1)c1ccc(C2(C(F)(F)F)CN=C(c3cc(Cl)c(Cl)c(Cl)c3)C2)cc1` (stereo partly drawn) [Compound B3, N-[(1S)-1-[4-[5-(3,4,5-trichlorophenyl)-3-(trifluoromethyl)-2,4-dihydropyrrol-3-yl]phenyl]ethyl]cyclopropanecarboxamide] as the compound, how does the “% larval mortality” value ([1]; application rate 0.3 mg/seed) read?
A: 80%

Q: What about the pest or weed control at 50 µg/mL [2, 3] of the same compound?
A: > 80%

Q: And the pest or weed control at 200 ppm [2, 4]?
A: ≥ 80%

Q: What does the source list for `N#Cc1cc(C2=NOC(c3cc(Cl)c(F)c(Cl)c3)(C(F)(F)F)C2)ccc1-n1cncn1` (stereo not shown) [Compound C3]?
A: % larval mortality ([1]; application rate 1 mg/seed): 83%; pest or weed control at 200 ppm [2]: ≥ 80%; pest or weed control at 50 µg/mL [2]: > 80%

Q: Which “control of Diabrotica balteata” value [2, 4] does the source give for `Cc1cc(C2=NOC(c3cc(Cl)cc(Cl)c3)(C(F)(F)F)C2)ccc1-n1cccn1` (stereo not shown) [Compound D5] here?
A: lower control

Q: For `CCC(=O)NCc1ccc(C2=NOC(c3cc(Cl)cc(Cl)c3)(C(F)(F)F)C2)cc1Cl` (stereo not shown) [Compound A3], which pest or weed control at 200 ppm [2] is on record?
A: ≥ 80%

Q: And the pest or weed control at 50 µg/mL [2]?
A: > 80%
